Where two headings read alike, the source gives them in different places. One block for each compound: values may come before it.
Target: T1, P2X7 receptor (Homo sapiens, UniProt Q99572)
T1 construct: host or cells: SH-SY5Y
T1 sequence (Q99572 1-595): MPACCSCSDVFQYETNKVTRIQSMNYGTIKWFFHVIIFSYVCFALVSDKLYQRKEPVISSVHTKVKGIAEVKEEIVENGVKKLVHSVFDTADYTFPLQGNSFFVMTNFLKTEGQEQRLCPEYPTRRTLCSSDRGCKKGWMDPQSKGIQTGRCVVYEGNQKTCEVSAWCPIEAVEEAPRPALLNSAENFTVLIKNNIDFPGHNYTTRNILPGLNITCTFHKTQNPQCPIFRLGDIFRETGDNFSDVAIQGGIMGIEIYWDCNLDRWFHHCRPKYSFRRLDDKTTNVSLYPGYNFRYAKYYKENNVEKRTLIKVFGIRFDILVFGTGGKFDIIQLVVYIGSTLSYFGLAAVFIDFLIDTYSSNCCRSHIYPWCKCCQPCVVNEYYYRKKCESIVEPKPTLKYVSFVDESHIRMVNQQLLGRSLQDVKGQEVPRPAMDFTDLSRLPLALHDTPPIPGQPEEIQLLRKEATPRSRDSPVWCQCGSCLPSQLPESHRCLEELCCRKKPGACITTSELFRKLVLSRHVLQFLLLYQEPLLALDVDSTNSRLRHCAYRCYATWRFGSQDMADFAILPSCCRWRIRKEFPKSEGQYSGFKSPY
Assay: P2X7 calcium mobilization assay, high throughput, antagonist activity (Example 4A)
Assay type: cell-based
Details: read-out: IC50
In short: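 Antagonism was measured as calcium fluorescence (FLIPR Tetra) in cells seeded one day earlier at 100,000/well, loaded with dye for 1 h and exposed to compound for 1 h at room temperature before agonist. Peak RFU, minus the no-agonist background, was referenced to the mean of the agonist wells.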

[1] = 50% decrease in the fluorescence response of cells exposed to 80 μM 2′(3′)-O-(4-benzoyl-benzoyl)adenosine 5′-triphosphate, Example 4A
[2] = 50% decrease in the fluorescence response of cells exposed to 80 μM of 2′(3′)-O-(4-benzoyl-benzoyl)adenosine 5′-triphosphate, determined as in Example 4A
[3] = 50% decrease in the fluorescence response of cells exposed to 80 μM of 2′(3′)-O-(4-benzoyl-benzoyl)adenosine 5′-triphosphate, Example 4A
[4] = SH-SY5Y cells, 50% decrease in fluorescence response to 80 μM BzATP
[5] = fluorescence response of cells exposed to 80 μM 2′(3′)-O-(4-benzoyl-benzoyl)adenosine 5′-triphosphate, Example 4A

IC50 [1]: < 2000 nM
SMILES: CCOC(=O)C(C)(C)c1cn2c(C(=O)NCC34CC5CC(CC(C5)C3)C4)cccc2n1 [Compound 450, ethyl 2-{5-[(adamantan-1-ylmethyl)carbamoyl]imidazo[1,2-a]pyridin-2-yl}-2-methylpropanoate]

IC50 [2]: < 2000 nM
SMILES: CC(C)CC(CNC(=O)c1cccc2nc(CN3CCC[C@@H](N)C3)cn12)c1ccc(Cl)cc1 (stereo partly drawn) [Compound 916, 2-{[(3R)-3-aminopiperidin-1-yl]methyl}-N-[2-(4-chlorophenyl)-4-methylpentyl] imidazo [1,2-a]pyridine-5-carboxamide]

IC50 [3]: < 2000 nM
SMILES: CCN(CCN(C)C)C(=O)c1cn2c(C(=O)NCC34CC5CC(CC(C5)C3)C4)cccc2n1 [Compound 672, 5-N-(adamantan-1-ylmethyl)-2-N-[2-(dimethylamino)ethyl]-2-N-ethylimidazo[1,2-a]pyridine-2,5-dicarboxamide]

IC50 [4]: < 2000 nM
SMILES: CC1(O)CCN(C(=O)c2cn3c(C(=O)NCC45CC6CC(CC(C6)C4)C5)cccc3n2)CC1 [Compound 108, N-(adamantan-1-ylmethyl)-2-[(4-hydroxy-4-methylpiperidin-1-yl)carbonyl]imidazo[1,2-a]pyridine-5-carboxamide]

IC50 [3]: < 2000 nM
SMILES: CC1CCCCN1C1CCN(C(=O)c2cn3c(C(=O)NCC45CC6CC(CC(C6)C4)C5)cccc3n2)CC1 (stereo not drawn) [Compound 699, N-(adamantan-1-ylmethyl)-2-[(2-methyl-1,4′-bipiperidin-1′-yl)carbonyl]imidazo[1,2-a]pyridine-5-carboxamide]

IC50 [3]: < 2000 nM
SMILES: CC1(C)C2CC[C@H](CNC(=O)c3cccc4nc(CC(=O)N5CCSCC5)cn34)C1C2 (stereo partly drawn) [Compound 795, N-{[(2S)-6,6-dimethylbicyclo[3.1.1]hept-2-yl]methyl}-2-(2-oxo-2-thiomorpholin-4-ylethyl)imidazo[1,2-a] pyridine-5-carboxamide]

IC50 [3]: < 2000 nM
SMILES: COCCN(C)C1CCN(C(=O)c2cn3c(C(=O)NCC45CC6CC(CC(C6)C4)C5)cccc3n2)CC1 [Compound 720, N-(adamantan-1-ylmethyl)-2-({4-[(2-methoxyethyl)(methyl)amino]piperidin-1-yl}carbonyl)imidazo[l, 2-a]pyridine-5-carboxamide]

IC50 [3]: < 2000 nM
SMILES: CN(C)C1CCCN(C(=O)CCc2cn3c(C(=O)NCC45CC6CC(CC(C6)C4)C5)cccc3n2)C1 (stereo not drawn) [Compound 754, N-(adamantan-1-ylmethyl)-2-{3-[3-(dimethylamino)piperidin-1-yl]-3-oxopropyl} imidazo[1,2-a] pyridine-5-carboxamide]

IC50 [5]: < 2000 nM
SMILES: COC1CCN(C(=O)Cc2cn3c(C(=O)NCC(CC(C)C)c4ccccc4)cccc3n2)CC1 (stereo not drawn) [Compound 239, 2-[2-(4-methoxypiperidin-1-yl)-2-oxoethyl]-N-(4-methyl-2-phenylpentyl)imidazo [1,2-a]pyridine-5-carboxamide]

IC50 [3]: < 2000 nM
SMILES: CC(C)(C)NCCOC(=O)c1cn2c(C(=O)NCC34CC5CC(CC(C5)C3)C4)cccc2n1 [Compound 696, 2-(tert-butylamino)ethyl 5-[(adamantan-1-ylmethyl)carbamoyl] imidazo[1,2-a] pyridine-2-carboxylate]

IC50 [5]: < 2000 nM
SMILES: O=C(CC12CC3CC(CC(C3)C1)C2)Nc1cccc2nc(C(=O)N3CCC(C(F)(F)F)CC3)cn12 [Compound 382, 2-adamantan-1-yl-N-(2-{[4-(trifluoromethyl)piperidin-1-yl]carbonyl}imidazo[1,2-a]pyridin-5-yl)acetamide]

IC50 [2]: < 2000 nM
SMILES: CC(C)CC(CNC(=O)c1cccc2nc(CC(Cc3ccccc3)C(=O)O)cn12)c1ccc(Cl)cc1 (stereo not drawn) [Compound 1007, 2-benzyl-3-(5-{[2-(4-chlorophenyl)-4-methylpentyl]carbamoyl}imidazo[1,2-a]pyridin-2-yl) propanoic acid]

IC50 [3]: < 2000 nM
SMILES: CCOC(=O)C(Cc1ccc(OC)cc1)c1cn2c(C(=O)NCC34CC5CC(CC(C5)C3)C4)cccc2n1 (stereo not drawn) [Compound 801, ethyl 2-{5-[(adamantan-1-ylmethyl)carbamoyl]imidazo[1,2-a]pyridin-2-yl}-3-(4-methoxyphenyl) propanoate]

IC50 [2]: < 2000 nM
SMILES: CC(C)CC(CNC(=O)c1cccc2nc(C(Cc3ccccn3)C(=O)O)cn12)c1ccc(Cl)cc1 (stereo not drawn) [Compound 938, 2-(5-{[2-(4-chlorophenyl)-4-methylpentyl]carbamoyl}imidazo[1,2-a]pyridin-2-yl)-3-pyridin-2-ylpropanoic acid]

IC50 [5]: < 2000 nM
SMILES: O=C(O)CCc1cn2c(C(=O)NCC34CC5CC(CC(C5)C3)C4)cccc2n1 [Compound 296, 3-{5-[(adamantan-1-ylmethyl)carbamoyl]imidazo[1,2-a]pyridin-2-yl}propanoic acid]

IC50 [2]: < 2000 nM
SMILES: CC(C)CC(CNC(=O)c1cccc2nc(CN(C)CCO)cn12)c1ccc(Cl)cc1 (stereo not drawn) [Compound 943, N-[2-(4-chlorophenyl)-4-methylpentyl]-2-{[(2-hydroxyethyl)(methyl)amino]methyl}imidazo [1,2-a]pyridine-5-carboxamide]

IC50 [3]: < 2000 nM
SMILES: O=C(NCC12CC3CC(CC(C3)C1)C2)c1cccc2nc(CC(=O)N3CC[C@@H](NCCO)C3)cn12 [Compound 726, N-(adamantan-1-ylmethyl)-2-(2-{(3R)-3-[(2-hydroxyethyl)amino]pyrrolidin-1-yl}-2-oxoethyl) imidazo[1,2-a]pyridine-5-carboxamide]

IC50 [1]: < 2000 nM
SMILES: CC1(C)[C@H]2CC[C@@H](CNC(=O)c3cccc4nc(C(=O)N5CCC(F)(F)CC5)cn34)[C@@H]1C2 [Compound 485, 2-[(4,4-difluoropiperidin-1-yl)carbonyl]-N-{[(1S,2R,5S)-6,6-dimethylbicyclo[3.1.1]hept-2-yl]methyl} imidazo[1,2-a]pyridine-5-carboxamide]

IC50 [1]: < 2000 nM
SMILES: O=C(CC12CC3CC(CC(C3)C1)C2)Nc1cccc2nc(C(=O)N3CCC(CO)CC3)cn12 [Compound 424, 2-adamantan-1-yl-N-(2-{[4-(hydroxymethyl)piperidin-1-yl]carbonyl}imidazo[1,2-a]pyridin-5-yl)acetamide]

IC50 [1]: < 2000 nM
SMILES: CN(CC1OCCO1)C(=O)c1cn2c(C(=O)NC[C@@H]3CC[C@H]4C[C@@H]3C4(C)C)cccc2n1 [Compound 468, 5-N-{[(1S,2R,5S)-6,6-dimethylbicyclo[3.1.1]hept-2-yl]methyl}-2-N-(1,3-dioxolan-2-ylmethyl)-2-N-methylimidazo[1,2-a]pyridine-2,5-dicarboxamide]

IC50 [1]: < 2000 nM
SMILES: CC1(C)[C@@H]2CC[C@@H](CNC(=O)c3cccc4nc(CC(=O)NCC5CCCN5)cn34)[C@H]1C2 (stereo partly drawn) [Compound 590, N-{[(1R,2R,5R)-6,6-dimethylbicyclo[3.1.1]hept-2-yl]methyl}-2-{2-oxo-2-[(pyrrolidin-2-ylmethyl)amino]ethyl} imidazo[1,2-a]pyridine-5-carboxamide]

IC50 [4]: < 2000 nM
SMILES: O=C(NCC12CC3CC(CC(C3)C1)C2)c1cccc2nc(CCN3CCC(O)CC3)cn12 [Compound 116, 2-[2-(4-hydroxy-piperidin-1-yl)-ethyl]-imidazo[1,2-a]pyridine-5-carboxylic acid (adamantan-1-ylmethyl)-amide]

IC50 [2]: < 2000 nM
SMILES: O=C(Cc1cn2c(C(=O)NCCc3ccccc3)cccc2n1)NCC12CC3CC(CC(C3)C1)C2 [Compound 972, 2-{2-[(adamantan-1-ylmethyl)amino]-2-oxoethyl}-N-(2-phenylethyl)imidazo[1,2-a]pyridine-5-carboxamide]

IC50 [2]: < 2000 nM
SMILES: Cc1ccc(C2(CNC(=O)c3cccc4nc(CN5CC[C@@H](N)C5)cn34)CCCCC2)cn1 [Compound 824, 2-{[(3R)-3-aminopyrrolidin-1-yl]methyl}-N-{[1-(6-methylpyridin-3-yl)cyclohexyl]methyl} imidazo[1,2-a] pyridine-5-carboxamide]

— patent publication US8431593B2, “Heteroaryl amide derivatives” (H. Lundbeck A/S, priority 2006, dated 2013)
